Results on two molecules are retold here after PMC8388802, “Study on the Structure-Activity Relationship of an Antimicrobial Peptide, Brevinin-2GUb, from the Skin Secretion of Hylarana guentheri” (Antibiotics, 2021).

≈ marks a conversion by molar mass, not a printed value. Where a SMILES comes first, the peptide text is derived from it. Where no end group is shown, it is not given here.

Series [1] relates to enteroaggregative E. coli. The note with it: cited from earlier work. An excerpt: Due to the influence of physiological factors, there may be some difference between the antimicrobial activity in vitro and in vivo [41]. Consistent with the haemolysis assay and cytotoxicity assay results, Brevinin-2GUb is much harmful to the wax moth than tB2U-K and tB2U-6K. […] In our study, with the increase of the number of net charges, the survival rate of E. coli-infected wax moth is enhanced and the ability o ...

For series [2], the system named is E. faecalis (NCTC 12493) biofilm. Type of series: cell-based, Enterococcus faecalis. The note with it: NCTC 12493, 24 h. As to the method:
(§1) The anti-biofilm activities of the peptides against S. aureus (ATCC 6538), MRSA (NCTC 12493), E. faecalis (NCTC 12493), E. coli (ATCC CRM 8739), K. pneumoniae (ATCC 43816), and P. aeruginosa (ATCC CRM 9027) were evaluated.
(§2) The bacteria were inoculated in a different medium (Gram-positive bacteria were in TSB and Gram-negative bacteria were in LB) overnight, and the subculture was conducted in the same medium. When the bacteria reached a specific density, 100 µL of the dilution was added to each well of the 96-well microplate. Then 1 µL of peptide at a series of concentrations, the same concentration in the antimicrobial assay, were added into the well together with the bacteria. The plates were put into a moist shaking incubator with a speed of 200 rpm, and the temperature was set at 37 ℃. After a 24-h incubation, the liquid in the wells was aspirated, and each was washed twice by 100 µL PBS. One hundred µL of methanol were added into each well to stabilise the biofilm. After air-drying, 100 µL crystal violet was used to dye the biofilm, and they were dissolved in the 100 µL glacial acidic acid after drying. The solutions were transferred to a new microplate, and the absorbance of each well was tested by a microplate reader (EL808, Biolise BioTek Winooski, Minneapolis, MN, USA) at 595 nm wavelength. MBIC was the minimum concentration of the peptide showing no biofilm formation.
(§3) The bacteria were inoculated in a different medium (Gram-positive bacteria were in TSB and Gram-negative bacteria were in LB) overnight, and the subculture was conducted in the same medium. When the bacteria reached a specific density, 100 µL of the dilution was added to each well of the 96-well microplates. The plates were put into a moist shaking incubator with a speed of 200 rpm and the temperature was 37 ℃. After a 24 h incubation, the liquid in the wells was aspirated and they were washed twice by 100 µL PBS of each well. The peptides with the same concentrations were diluted in the corresponding medium and 100 µL were added into each well. After a 24-h incubation, the liquid in the wells was aspirated and they were washed twice by 100 µL PBS. One hundred µL of methanol were added into the wells to stabilise the biofilms. After being air-dried, 100 µL crystal violet was used to dye the biofilm, and they were dissolved in the 100 µL glacial acidic acid after drying. The solutions were transferred to a new microplate, and the absorbance of each well was tested by a microplate reader (EL808, Biolise BioTek Winooski, Minneapolis, USA) at 595 nm wavelength.

Series [3] concerns E. faecalis (NCTC 12493). Type of series: cell-based, Enterococcus faecalis. As to the method:
(§4) The method of antimicrobial assay is based on the Methods for Dilution Antimicrobial Susceptibility Tests for Bacteria that Grow Aerobically from the Clinical and Laboratory Standards Institute (CLSI).The antimicrobial activities of peptides were evaluated against Gram-positive bacteria S. aureus (ATCC 6538), MRSA (NCTC 12493), E. faecalis (NCTC 12493), Gram-negative bacteria E. coli (ATCC CRM 8739), K. pneumoniae (ATCC 43816), P. aeruginosa (ATCC CRM 9027), yeast C. albicans (ATCC CRM 10231) and clinical isolates MRSA (B042 V2E1 A), E. coli (ATCC BAA-2340), K. pneumoniae (ATCC BAA-1705), P. aeruginosa (B004 V2S2 B).
(§5) At the first stage of the assay, 20 μL bacteria were cultured in 100 mL Mueller Hinton Broth (MHB) or Yeast Extract–Peptone–Dextrose broth (YPD-B), respectively, and was incubated overnight. Then, microorganisms were subcultured in 20 mL fresh MHB or YPD-B to achieve cultures in the logarithmic phase (1 × 10^8 CFU/mL), which can be verified by optical density (OD) (The OD of Gram-positive bacteria is 0.23, OD of Gram-negative bacteria is 0.4, and OD of yeast is 0.15), and viable cell counts. Then, the medium was used to dilute the cultures to specific cell densities (Gram-negative and Gram-positive bacteria: 5 × 10^5 CFU/mL; yeast: 1 × 10^6 CFU/mL), which were the final concentrations of bacterial suspensions used in the assay. The peptides were dissolved in DMSO to reach a final concentration of 512 µM. A series of two-fold dilutions ranging from 512 µM to 1 µM were dosed in the 96-well plates.
(§6) Antimicrobial assays were conducted in 96-well plates, which were divided into five groups, including a negative control group (PBS), a positive control group (20 μg/mL norfloxacin for bacteria and 10 μg/mL amphotericin B for yeast), vehicle control (1% DMSO), blank control (MHB or YPD-B), and a peptide group. Each microorganism had five repetitions, and each well contained 1 µL corresponding solution and 99 µL culture. After incubation at 37 °C overnight, the absorbance of each well was tested by a microplate reader (EL808, Biolise BioTek Winooski, Minneapolis, USA) under a 550 nm wavelength. The MIC is the lowest concentration at which no bacterial growth can be observed.
(§7) The next day, 10 µL of every clear well was taken out to be cultured on a Mueller Hinton Agar (MHA) plate and incubated at 37 °C for 16–20 h. The MBC is the lowest concentration without any bacterial colonies, which means at this concentration, the peptide reduces the viability of the pathogen by more than 99.9%.

The subject of series [4] is MRSA (NCTC 12493) biofilm. Type of series: cell-based, Methicillin-resistant Staphylococcus aureus. The note with it: NCTC 12493, 24 h. As to the method: as §1, §2
The bacteria were inoculated in a different medium (Gram-positive bacteria were in TSB and Gram-negative bacteria were in LB) overnight, and the subculture was conducted in the same medium. When the bacteria reached a specific density, 100 µL of the dilution was added to each well of the 96-well microplates. The plates were put into a moist shaking incubator with a speed of 200 rpm and the temperature was 37 ℃. […] The solutions were transferred to a new microplate, and the absorbance of each well was tested by a microplate reader (EL808, Biolise BioTek Winooski, Minneapolis, USA) at 595 nm wavelength.

For series [5], the system named is S. aureus (ATCC 6538) biofilm. Type of series: cell-based, Staphylococcus aureus. The note with it: ATCC 6538, 24 h. As to the method: as §1, §2, §3
In series [6] the test system is MRSA (NCTC 12493). The format is cell-based, Methicillin-resistant Staphylococcus aureus. As to the method: as §4, §5, §6, §7
Series [7] has as its system MRSA (B042 V2E1 A). The format is cell-based, Methicillin-resistant Staphylococcus aureus. As to the method: as §4, §5, §6, §7
In series [8] the test system is K. pneumoniae (ATCC 43816). The format is cell-based, Klebsiella pneumoniae. As to the method:
as §4, §5, §6, §7

Series [9] deals with K. pneumoniae (ATCC BAA-1705). The format is cell-based, Klebsiella pneumoniae. As to the method:
as §4, §5, §6, §7

Series [10] relates to E. coli (ATCC CRM 8739). Type of series: cell-based, Escherichia coli. As to the method:
as §4, §5, §6, §7

Series [11] relates to E. coli (ATCC BAA-2340). Type of series: cell-based, Escherichia coli. As to the method: as §4, §5, §6, §7
For series [12], the system named is wax moth (Galleria mellonella). The series can be described thus: Toxicity of peptides to waxworms. Type of series: in vivo. As to conditions: uninfected waxworms, when the concentration reached 15 mg/kg.
The test system of series [13] is E. coli (ATCC CRM 8739) biofilm. The format is cell-based, Escherichia coli. As to conditions: ATCC CRM 8739, 24 h. As to the method: as §1, §2, §3
The subject of series [14] is P. aeruginosa (ATCC CRM 9027). Type of series: cell-based, Pseudomonas aeruginosa. As to the method: as §4, §5, §6, §7
For series [15], the system named is P. aeruginosa (B004 V2S2 B). Type of series: cell-based, Pseudomonas aeruginosa. As to the method: as §4, §5, §6, §7
For series [16], the system named is K. pneumoniae (ATCC 43816) biofilm. Type of series: cell-based, Klebsiella pneumoniae. The note with it: ATCC 43816, 24 h. As to the method:
as §1, §2, §3

Series [17] deals with C. albicans (ATCC CRM 10231). Type of series: cell-based, Candida albicans. As to the method:
as §4, §5, §6, §7

The test system of series [18] is S. aureus (ATCC 6538). The format is cell-based, Staphylococcus aureus. As to the method: as §4, §5, §6, §7
Series [19] relates to P. aeruginosa (ATCC CRM 9027) biofilm. The format is cell-based, Pseudomonas aeruginosa. As to conditions: ATCC CRM 9027, 24 h. As to the method:
as §1, §2, §3

For “Indolicidin (ILPWKWPWWPWRR; ends and bridges not checked; UniProt P33046 131-143, looked up) [antimicrobial peptide of a previous study in Galleria mellonella]”, the “survival rate of Galleria mellonella infected by the enteroaggregative E. coli” value in series [1] is listed as “up to 95%”.

As to `CC[C@H](C)[C@H](NC(=O)[C@@H](NC(=O)CN)C(C)C)C(=O)N[C@H](C(=O)N[C@@H](CC(=O)O)C(=O)N[C@H](C(=O)N[C@@H](CC(C)C)C(=O)N[C@@H](CCCCN)C(=O)NCC(=O)N[C@@H](C)C(=O)N[C@@H](C)C(=O)N[C@@H](CCCCN)C(=O)N[C@H](C(=O)N[C@H](C(=O)N[C@@H](C)C(=O)N[C@@H](C)C(=O)N[C@@H](CCC(=O)O)C(=O)N[C@@H](CC(C)C)C(=O)N[C@@H](CC(C)C)C(=O)N[C@@H](CCCNC(=N)N)C(=O)N[C@@H](CCCCN)C(=O)N[C@@H](C)C(=O)N[C@@H](Cc1c[nH]cn1)C(=O)N[C@H]1CSSC[C@@H](C(=O)O)NC(=O)[C@H](CO)NC(=O)[C@H](CC(N)=O)NC(=O)[C@H]([C@@H](C)O)NC(=O)[C@H](CC(C)C)NC(=O)[C@H](CCCCN)NC1=O)C(C)C)[C@@H](C)O)[C@@H](C)O)[C@@H](C)CC` [Brevinin-2GUb] (HELM PEPTIDE1{G.V.I.I.D.T.L.K.G.A.A.K.T.V.A.A.E.L.L.R.K.A.H.C.K.L.T.N.S.C}$PEPTIDE1,PEPTIDE1,24:R3-30:R3$$$V2.0), the MBEC in series [2], in series [5], in series [13], in [16] and in series [19] was greater than 512 µM each time. The MBIC was greater than 512 µM in [2]; 256 µM in [4]; 256 µM in series [5]; 128 µM in series [13]; greater than 512 µM in [16]; greater than 512 µM in [19]. The MBC is greater than 512 µM in [3]; greater than 512 µM in series [6]; greater than 512 µM in [7]; 128 µM (≈ 400 µg/mL) in series [8]; 512 µM (≈ 1600 µg/mL) in series [9]; 16 µM (≈ 50 µg/mL) in [10]. Moreover, the MBC in series [11] is 32 µM (≈ 100 µg/mL); in series [14] it was 512 µM (≈ 1600 µg/mL); in [15] it was greater than 512 µM; in [17], greater than 512 µM; in series [18], 32 µM (≈ 100 µg/mL). In addition, the MIC in series [3] is greater than 512 µM; in [6], greater than 512 µM; in series [7], greater than 512 µM; in [8], 128 µM (≈ 400 µg/mL); in series [9], 512 µM (≈ 1600 µg/mL); in series [10], 16 µM (≈ 50 µg/mL). Further, the MIC in series [11] is 32 µM (≈ 100 µg/mL); in [14], 128 µM (≈ 400 µg/mL); in series [15] it was greater than 512 µM; in series [17], greater than 512 µM; in series [18], 32 µM (≈ 100 µg/mL). The toxicity to waxworms entry in series [12] is on record as “modest toxicity”.
